Data set [1] deals with T1, trypsin from porcine pancreas (Sus scrofa, UniProt P00761).
T1 construct: purchased Sigma; host or cells: porcine pancreas
Description: Proteolytic stability against trypsin. The following applies: pig. Type of data set: in vitro ADME. How it is done: Figure 4. Biophysical analysis of stapled peptides. A, amino acid sequence alignment of the targeted TM regions and disrupting peptides. Cys residues are in the reduced state. Blue bridges indicate the stapled amino acid residues. […] Yields, purity, and MALDI-TOF data are shown for the stapled peptides and negative control. B, CD analysis of 30–50 μM peptides at 20 °C. For proteolytic stability studies, the peptide solution (55.5 μM for trypsin and chymotrypsin and 11.1 μM for serum) was incubated in the presence of 0.55 μg/ml trypsin from porcine pancreas (E), α-chymotrypsin (F), or mouse serum (G) at 37 °C for the indicated times (indicated on the x axis). Data are mean ± S.E. (error bars) (n = 3) percentage of intact peptide normalized to t = 0. Proteolytic half-lives and putative cleavage sites (predicted using the Expasy bioinformatics server's model with a 50% probability of cleavage) are indicated at the bottom of each panel. Positive correlation between helicity and half-life in trypsin/chymotrypsin (C) or serum (D) was determined by two-tailed Pearson's correlation test. TEXT PRINTED IN THE PICTURE: (B) TM7-TAT: Ellipticity (%): 3.4 | (B) TM6-TAT: Ellipticity (%): 18.3 | (B) TM5-TAT: Ellipticity (%): 20.9 | (B) 8: Ellipticity (%): 58.3 | (B) 9: Ellipticity (%): 46.4 | (B) 10: Ellipticity (%): 36.8 | (B) 11: Ellipticity (%): 46 | (E) TM7-TAT: Half-life (min): 21; #Cleavage sites: 8 | (E) TM6-TAT: Half-life (min): 40; #Cleavage sites: 7 | (E) TM5-TAT: Half-life (min): 33; #Cleavage sites: 8 | (E) 8: Half-life (min): 307; #Cleavage sites: 0 | (E) 9: Half-life (min): 178; #Cleavage sites: 0 | (E) 10: Half-life (min): 75; #Cleavage sites: 6 | (E) 11: Half-life (min): 84; #Cleavage sites: 0 | (F) TM7-TAT: Half-life (min): 22; #Cleavage sites: 6 | (F) TM6-TAT: Half-life (min): 32; #Cleavage sites: 7 | (F) TM5-TAT: Half-life (min): 28; #Cleavage sites: 7 | (F) 8: Half-life (min): 425; #Cleavage sites: 4 | (F) 9: Half-life (min): 198; #Cleavage sites: 3 | (F) 10: Half-life (min): 63; #Cleavage sites: 2 | (F) 11: Half-life (min): 79; #Cleavage sites: 4 | (G) TM7-TAT: Half-life (hours): 0.46 | (G) TM6-TAT: Half-life (hours): 0.55 | (G) TM5-TAT: Half-life (hours): 0.81 | (G) 8: Half-life (hours): ≥18 | (G) 9: Half-life (hours): 14.7 | (G) 10: Half-life (hours): 11.7 | (G) 11: Half-life (hours): 5.3 DOUBTS OF THE COPYIST ABOUT THIS PICTURE: Panel A table (Yield, Rt, Purity, [M+H+] calc., [M+H+] Peak Found for 7-11) left out as synthesis and mass-spectrum characterisation data; uncertain whether [M+H+] calc. should count as a molecular weight
Dose–response curves were fitted using a four-parameter logistic nonlinear regression mode. Peptide stability data were fitted using a nonlinear regression mode for dissociation kinetics. All statistical tests, curve fitting, and graphing were performed using GraphPad Prism 8 (GraphPad Software, La Jolla, CA).
To 100 μl of peptide solution (100 μM, dissolved in ammonium bicarbonate buffer, pH 7.5), 60 μl of ammonium bicarbonate buffer (pH 7.5) was added, together with 20 μl of temperature-equilibrated (37 ± 1 °C) trypsin (5 μg/ml) from porcine pancreas (Sigma, 13,000–20,000 BAEE units/mg of protein). Peptides were incubated for 15, 30, 60, 120, 240, and 480 min, and then MeOH (HPLC Grade) + 0.05% TFA was added. The samples were then centrifuged (15,000 rpm), and the supernatant was analyzed, using Fmoc-Gly (10 μl, 0.2 mM) as an internal standard. The digestion at each time point was repeated three times to give the average values along with S.D. The amount of intact peptide that remained in the mixture was quantified by RP-HPLC. The experiment was repeated twice on different days.

For the next data set, the system named is 5-HT2AR–CB1R heteromers. Also noted: method as in 2 sources, ref 16 = [16]; PMID 26158621; doi:10.1371/journal.pbio.1002194; 16. Viñals X. , Moreno E. , Lanfumey L. , Cordomí A. , Pastor A. , de La Torre R. , Gasperini P. , Navarro G. , Howell L. A. , Pardo L. , Lluís C. , Canela E. I. , McCormick P. J. , Maldonado R. , and ||| ref 4, unpublished observations. As to conditions: synthetic TM-mimicking peptides fused to HIV-TAT; cited from earlier work.

[2] abbreviates: isolated enzyme trypsin, 55.5 μM peptide, 0.55 μg/ml trypsin from porcine pancreas, ammonium bicarbonate buffer pH 7.5, 37 °C, 15–480 min, intact peptide by RP-HPLC (Fmoc-Gly internal standard), n = 3, nonlinear regression fit, read-out: Half-life (min), trypsin.

Like-named read-outs stand apart in the source and are kept apart here. Where a SMILES comes first, the peptide text is derived from it. Bridges are numbered along the chain shown (N, C = ends). Where no end group is shown, it is not given here. [ ]: non-standard residue; d: D form. S5 = C=CCCC[C@](C)(N)C(=O)O; Nle = CCCC[C@H](N)C(=O)O

For orientation: half-life means how long it takes for the measured level to halve.

T1 sequence (P00761 9-231): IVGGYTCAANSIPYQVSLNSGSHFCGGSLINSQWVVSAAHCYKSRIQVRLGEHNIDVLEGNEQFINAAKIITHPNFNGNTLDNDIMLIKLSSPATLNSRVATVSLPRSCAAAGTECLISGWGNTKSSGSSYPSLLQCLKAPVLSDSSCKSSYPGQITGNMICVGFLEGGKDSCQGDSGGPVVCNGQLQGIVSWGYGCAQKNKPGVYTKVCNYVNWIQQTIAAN

In the case of `CCCC[C@H](NC(=O)[C@]1(C)CCC/C=C\CCC[C@](C)(NC(=O)[C@H](Cc2ccccc2)NC(=O)[C@H](CC(C)C)NC(=O)[C@H](CC(C)C)NC(=O)[C@H](CC(C)C)NC(=O)[C@@H](N)C(C)C)C(=O)N[C@@H](C(C)C)C(=O)N[C@@H](Cc2ccc(O)cc2)C(=O)N[C@@H](C)C(=O)N1)C(=O)N[C@@H](Cc1ccc(O)cc1)C(=O)N[C@H](C(=O)N[C@@H](CC(C)C)C(=O)N[C@@H](Cc1c[nH]c2ccccc12)C(N)=O)[C@@H](C)CC` [Peptide 8] (H-VLLLF[S5]VYA[S5][Nle]YILW-NH2; staple (Z) 6-10), the half-life at 55.5 μM in data set [1] (trypsin from porcine pancreas, pH 7.5, trypsin 0.55 μg/ml, 37 °C, pH 7.5, approximate value of running text, read-out: half-life in trypsin as stated in text (converted)) was around 300 min; in data set [1] (55.5 μM peptide, 0.55 μg/ml trypsin from porcine pancreas, ammonium bicarbonate buffer pH 7.5, 37 °C, 15–480 min, intact peptide by RP-HPLC (Fmoc-Gly internal standard), n = 3, nonlinear regression fit, read-out: Half-life (min), trypsin), 307 min.

For `C=CCCC[C@](C)(NC(=O)[C@H](Cc1ccc(O)cc1)NC(=O)[C@@H](N)C(C)C)C(=O)N[C@@H](Cc1ccc(O)cc1)C(=O)N[C@@H](CCCC)C(=O)N[C@@](C)(CCCC=C)C(=O)N[C@H](C(=O)N[C@@H](CC(C)C)C(=O)N[C@@H](Cc1c[nH]c2ccccc12)C(N)=O)[C@@H](C)CC` [Peptide 11] (H-VY[S5]Y[Nle][S5]ILW-NH2), the half-life at 55.5 μM in data set [1] (isolated enzyme trypsin, pH 7.5, Half-life (min), trypsin) turned out to be 84 min.

On to “ETYLMFWIGVTSVLLLFIVYAYMYILWGRKKRRQRRR [TM5-TAT, reference compound]”, for which, in data set [1] (setting [2]), the half-life at 55.5 μM is 33 min. Also, the “disruption of 5-HT2AR–CB1R heteromers (previous studies)” value with 5-HT2AR–CB1R heteromers is reported as “selectively disrupted”.

Regarding “GRKKRRQRRRKTLVLILVVLIICWGPLLAIMVY [TM6-TAT, reference compound]”, in data set [1] (setting [2]), the half-life at 55.5 μM was found to be 40 min. In the data set with 5-HT2AR–CB1R heteromers, the “disruption of 5-HT2AR–CB1R heteromers (previous studies)” value was “selectively disrupted”.

The values above are taken from PMC6851324, “Design and development of stapled transmembrane peptides that disrupt the activity of G-protein–coupled receptor oligomers” (The Journal of Biological Chemistry, 2019).
